{"source": "patent US7446226B2", "about": "(priority 2003, dated 2008)", "details_in_all_cases": "in vivo", "key": {"[1]": {"test_system": "sea tulip Balanus improvisus"}, "[2]": {"test_system": "blue mussel Mytilus edulis"}, "[3]": {"test_system": "growth of marine organisms on the painted surfaces"}, "[4]": {"test_system": "total growth of marine organisms on the panels"}}, "data": [{"molecule": "COc1cc(CNC(=O)CCCC/C=C/C(C)C)ccc1O", "note": "[capsaicin, (E)-8-methyl-N-vanillyl-6-nonenamide]", "values": [{"measurement": "Coverage of the sea tulip Balanus improvisus compared with the 2 other treatments", "setting": "[1]", "result": "significantly lower"}, {"measurement": "Reduction in growth measured as coverage of the sea tulip", "setting": "[1]", "result": 74, "unit": "%"}, {"measurement": "Coverage of the blue mussel Mytilus edulis, difference between the 3 treatments", "setting": "[2]", "result": "no statistically significant difference"}, {"measurement": "Growth on surfaces by optical comparison with the control surfaces", "setting": "[3]", "result": "considerably less growth"}, {"measurement": "Reduction in growth measured as a reduction in wet weight of total growth", "setting": "[4]", "result": 64, "unit": "%"}, {"measurement": "Wet weight of the total growth on the panels compared with the two other treatments", "setting": "[4]", "result": "statistically lower growth"}]}]}
